In publication PMC3815312, “A Set of Engineered Escherichia coli Expression Strains for Selective Isotope and Reactivity Labeling of Amino Acid Side Chains and Flavin Cofactors” (PLoS ONE, 2013):

Target: T1, Slr1694 (SyPixD) (Synechocystis sp. PCC 6803, UniProt P74295)
T1 construct: wild type, expressed from pET28a(+)-slr1694 in E. coli CpX strains (CpXribF, CpXdeltaY); N-terminal vector extension (peptide 33-GSEFMSLYR-41 seen by MS); flavin incorporated in vivo; unlabeled, ring-13C6-Tyr or 13C apoprotein
T1 sequence (P74295 1-150): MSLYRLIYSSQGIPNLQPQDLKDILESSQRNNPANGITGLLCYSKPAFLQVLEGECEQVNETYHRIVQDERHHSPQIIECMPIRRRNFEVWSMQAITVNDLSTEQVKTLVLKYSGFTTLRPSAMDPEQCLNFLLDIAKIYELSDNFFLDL
Assay: light-minus-dark FTIR difference spectroscopy of holoprotein
Assay type: binding
Conditions: in H2O; blue light 460 nm; non-covalent flavin incorporated in vivo (unlabeled riboflavin fed); bound flavin species not analysed, FMN and FAD named

Structure (SMILES): Cc1cc2nc3c(=O)[nH]c(=O)nc-3n(C[C@H](O)[C@H](O)[C@H](O)COP(=O)(O)OP(=O)(O)OC[C@H]3O[C@@H](n4cnc5c(N)ncnc54)[C@H](O)[C@@H]3O)c2cc1C [FAD]
- light-minus-dark FTIR difference spectroscopy of holoprotein: unlabeled riboflavin was provided in the medium throughout the cultivation procedure for the production of FMN and FAD cofactors
